Assay results: PubChem BioAssay AID1259407 (Chemical Carcinogenesis Research Information System (CCRIS), 2018)
The source made the active and inactive calls. No rule for the calls is given here.

Tested on: CCRIS mutagenicity, Ames/micronucleus/aberration tests
Assay: CCRIS mutagenicity studies

CC(=O)Nc1ccc2c(c1)Cc1ccccc1-2
mutagenic call (Test System: AMES SALMONELLA TYPHIMURIUM, Strain/Indicator: TA1537, Metabolic Activation: NONE, Method: STANDARD PLATE): inactive; negative
mutagenic call (Test System: AMES SALMONELLA TYPHIMURIUM, Strain/Indicator: TA1537, Metabolic Activation: RAT, LIVER, S-9, AROCLOR 1254, Method: SPIRAL ASSAY): inactive; negative
mutagenic call (Test System: AMES SALMONELLA TYPHIMURIUM, Strain/Indicator: TA1537, Metabolic Activation: RAT, LIVER, S-9, PHENOBARBITAL, Method: STANDARD PLATE): active; positive
mutagenic call (Test System: AMES SALMONELLA TYPHIMURIUM, Strain/Indicator: TA1538, Metabolic Activation: NONE, Method: STANDARD PLATE): inactive; negative
mutagenic call (Test System: AMES SALMONELLA TYPHIMURIUM, Strain/Indicator: TA1538, Metabolic Activation: RAT, LIVER, CYTOSOL, 2-ACETYLAMINOFLUORENE, Method: STANDARD PLATE): active; positive
mutagenic call (Test System: AMES SALMONELLA TYPHIMURIUM, Strain/Indicator: TA1538, Metabolic Activation: RAT, LIVER, CYTOSOL, AROCLOR 1254, Method: STANDARD PLATE): active; positive
mutagenic call (Test System: AMES SALMONELLA TYPHIMURIUM, Strain/Indicator: TA1538, Metabolic Activation: RAT, LIVER, CYTOSOL, Method: STANDARD PLATE): active; positive
mutagenic call (Test System: AMES SALMONELLA TYPHIMURIUM, Strain/Indicator: TA1538, Metabolic Activation: RAT, LIVER, MICROSOMES, 2-ACETYLAMINOFLUORENE, Method: STANDARD PLATE): active; positive
mutagenic call (Test System: AMES SALMONELLA TYPHIMURIUM, Strain/Indicator: TA1538, Metabolic Activation: RAT, LIVER, MICROSOMES, AROCLOR 1254, Method: STANDARD PLATE): active; positive
mutagenic call (Test System: AMES SALMONELLA TYPHIMURIUM, Strain/Indicator: TA1538, Metabolic Activation: RAT, LIVER, MICROSOMES, Method: STANDARD PLATE): active; positive
mutagenic call (Test System: AMES SALMONELLA TYPHIMURIUM, Strain/Indicator: TA1538, Metabolic Activation: RAT, LIVER, S-9, AROCLOR 1254, Method: STANDARD PLATE): active; positive
mutagenic call (Test System: AMES SALMONELLA TYPHIMURIUM, Strain/Indicator: TA1538, Metabolic Activation: RAT, LIVER, S-9, KC500 OR PHENOBARBITAL, Method: LIQUID SUSPENSION): active; positive
mutagenic call (Test System: AMES SALMONELLA TYPHIMURIUM, Strain/Indicator: TA1538, Metabolic Activation: RAT, LIVER, S-9, PHENOBARBITAL, Method: STANDARD PLATE): active; positive
mutagenic call (Test System: AMES SALMONELLA TYPHIMURIUM, Strain/Indicator: YG1024, Metabolic Activation: HUMAN, HEPATOMA CELLS, BENZO[A]ANTHRACENE, Method: PREINCUBATION): active; positive
mutagenic call (Test System: AMES SALMONELLA TYPHIMURIUM, Strain/Indicator: YG1024, Metabolic Activation: HUMAN, HEPATOMA CELLS, Method: PREINCUBATION): active; positive
mutagenic call (Test System: AMES SALMONELLA TYPHIMURIUM, Strain/Indicator: YG1024, Metabolic Activation: RAT, LIVER, S-9, AROCLOR 1254, Method: PREINCUBATION): active; positive
mutagenic call (Test System: AMES SALMONELLA TYPHIMURIUM, Strain/Indicator: YG1024, Metabolic Activation: RAT, LIVER, S-9, Method: PREINCUBATION): active; positive
mutagenic call (Test System: CHINESE HAMSTER OVARY, Strain/Indicator: AS52/6-THIOGUANINE, Metabolic Activation: NONE): inactive; negative
mutagenic call (Test System: CHINESE HAMSTER OVARY, Strain/Indicator: AS52/6-THIOGUANINE, Metabolic Activation: RAT LIVER S-9, 2-ACETYLAMINOFLUORENE): active; positive
mutagenic call (Test System: CHINESE HAMSTER OVARY, Strain/Indicator: CHO-K1-BH4 (HGPRT), Metabolic Activation: RAT, LIVER, S-9, AROCLOR, Method: SUSPENSION/PLATE): active; positive
mutagenic call (Test System: CHINESE HAMSTER V-79, Strain/Indicator: V-79/6-THIOGUANINE, Metabolic Activation: HAMSTER, LIVER, S-9, AROCLOR 1254, Method: SUSPENSION/PLATE): inactive; negative
mutagenic call (Test System: CHINESE HAMSTER V-79, Strain/Indicator: V-79/6-THIOGUANINE, Metabolic Activation: NONE, Method: SUSPENSION/PLATE): inactive; negative
mutagenic call (Test System: CHINESE HAMSTER V-79, Strain/Indicator: V-79/6-THIOGUANINE, Metabolic Activation: RAT, LIVER, S-9, PHENOBARBITAL AND BETA-NAPHTHOFLAVONE, Method: SUSPENSION/PLATE): inactive; negative
mutagenic call (Test System: E. COLI, Strain/Indicator: WP2 UVRA, Metabolic Activation: HAMSTER, LIVER, S-9, Method: STANDARD PLATE): inactive; negative
mutagenic call (Test System: E. COLI, Strain/Indicator: WP2 UVRA, Metabolic Activation: MOUSE, LIVER, S-9, Method: STANDARD PLATE): inactive; negative
mutagenic call (Test System: E. COLI, Strain/Indicator: WP2 UVRA, Metabolic Activation: NONE, Method: STANDARD PLATE): inactive; negative
mutagenic call (Test System: E. COLI, Strain/Indicator: WP2 UVRA, Metabolic Activation: RAT, LIVER, S-9, AROCLOR 1254, Method: STANDARD PLATE): inactive; negative
mutagenic call (Test System: E. COLI, Strain/Indicator: WP2 UVRA, Metabolic Activation: RAT, LIVER, S-9, Method: STANDARD PLATE): inactive; negative
mutagenic call (Test System: MOUSE LYMPHOMA, Strain/Indicator: L5178Y (TK+/TK-), Metabolic Activation: NONE, Method: SUSPENSION/PLATE): active; positive
mutagenic call (Test System: MOUSE LYMPHOMA, Strain/Indicator: L5178Y (TK+/TK-), Metabolic Activation: RAT, LIVER, S-9, AROCLOR 1254, Method: SUSPENSION/PLATE): active; positive
mutagenic call (Test System: MOUSE LYMPHOMA, Strain/Indicator: L5178Y (TK+/TK-), Metabolic Activation: RAT, LIVER, S-9, Method: SUSPENSION/PLATE): active; positive
mutagenic call (Test System: UDS GUINEA PIG HEPATOCYTES, Strain/Indicator: THY INCORP, Metabolic Activation: NONE, Method: AUTORADIOGRAPHY): active; positive
mutagenic call (Test System: UDS GUINEA PIG HEPATOCYTES, Strain/Indicator: THY INCORP, Metabolic Activation: NONE, Method: LIQUID SCINTILLATION COUNTING): active; positive
mutagenic call (Test System: UDS HAMSTER HEPATOCYTES, Strain/Indicator: THY INCORP, Metabolic Activation: NONE, Method: LIQUID SCINTILLATION COUNTING): active; positive
mutagenic call (Test System: UDS HUMAN FIBROBLASTS, Strain/Indicator: THY INCORP (NON-S-PHASE), Metabolic Activation: NONE, Method: AUTORADIOGRAPHY): active; positive
mutagenic call (Test System: UDS HUMAN HEPATOCYTES, Strain/Indicator: THY INCORP, Metabolic Activation: NONE, Method: AUTORADIOGRAPHY): active; positive
mutagenic call (Test System: UDS MONKEY HEPATOCYTES, Strain/Indicator: THY INCORP, Metabolic Activation: NONE, Method: AUTORADIOGRAPHY): inactive; negative
mutagenic call (Test System: UDS MOUSE HEPATOCYTES, Strain/Indicator: THY INCORP, Metabolic Activation: NONE, Method: LIQUID SCINTILLATION COUNTING): inactive; negative
mutagenic call (Test System: UDS RAT HEPATOCYTES, Strain/Indicator: BROMODEOXYURIDINE INCORP, Metabolic Activation: NONE, Method: FLOW CYTOMETRIC ANALYSIS): active; positive
mutagenic call (Test System: UDS RAT HEPATOCYTES, Strain/Indicator: THY INCORP, Metabolic Activation: AROCLOR 1254, Method: AUTORADIOGRAPHY): active; positive
mutagenic call (Test System: UDS RAT HEPATOCYTES, Strain/Indicator: THY INCORP, Metabolic Activation: NONE, Method: AUTORADIOGRAPHY): active; positive
mutagenic call (Test System: UDS RAT HEPATOCYTES, Strain/Indicator: THY INCORP, Metabolic Activation: NONE, Method: AUTORADIOGRAPHY (SERUM-FREE MEDIA)): active; positive
mutagenic call (Test System: UDS RAT HEPATOCYTES, Strain/Indicator: THY INCORP, Metabolic Activation: NONE, Method: IN VIVO): active; positive
mutagenic call (Test System: UDS RAT HEPATOCYTES, Strain/Indicator: THY INCORP, Metabolic Activation: NONE, Method: LIQUID SCINTILLATION): active; positive
mutagenic call (Test System: UDS RAT HEPATOCYTES, Strain/Indicator: THY INCORP, Metabolic Activation: NONE, Method: LIQUID SCINTILLATION COUNTING): active; positive
mutagenic call (Test System: UDS RODENT HEPATOCYTES, Strain/Indicator: THY INCORP (NON-S-PHASE), Metabolic Activation: NONE, Method: AUTORADIOGRAPHY): active; positive
mutagenic call (Test System: UDS RODENT HEPATOCYTES, Strain/Indicator: THY INCORP (NON-S-PHASE), Method: AUTORADIOGRAPHY): active; positive
mutagenic call (Test System: UDS RODENT HEPATOCYTES, Strain/Indicator: THY INCORP (NON-S-PHASE), Method: LIQUID SCINTILLATION COUNTING): active; positive
mutagenic call (Test System: UDS, Strain/Indicator: HEPG2/THYMIDINE INCORPORATION, Metabolic Activation: NONE, Method: AUTORADIOGRAPHY): active; positive
